“Also recorded” adds a separate entry of the source.
Key:
[1] = target: T1, endogenous PTH1R (Mus musculus, UniProt P41593); test: cAMP accumulation in primary osteoblasts (POB); type: cell-based, mice; settings: 100 nM PTH(1-34) or 1 μM PTH-βarr, 5 min
T1 construct: stimulation of endogenous PTH1R in primary murine osteoblasts (POB); endogenous in cells; host or cells: primary osteoblasts (POB) from WT and β-arrestin 2−/− C57BL/6 mice
T1 sequence (P41593 27-591): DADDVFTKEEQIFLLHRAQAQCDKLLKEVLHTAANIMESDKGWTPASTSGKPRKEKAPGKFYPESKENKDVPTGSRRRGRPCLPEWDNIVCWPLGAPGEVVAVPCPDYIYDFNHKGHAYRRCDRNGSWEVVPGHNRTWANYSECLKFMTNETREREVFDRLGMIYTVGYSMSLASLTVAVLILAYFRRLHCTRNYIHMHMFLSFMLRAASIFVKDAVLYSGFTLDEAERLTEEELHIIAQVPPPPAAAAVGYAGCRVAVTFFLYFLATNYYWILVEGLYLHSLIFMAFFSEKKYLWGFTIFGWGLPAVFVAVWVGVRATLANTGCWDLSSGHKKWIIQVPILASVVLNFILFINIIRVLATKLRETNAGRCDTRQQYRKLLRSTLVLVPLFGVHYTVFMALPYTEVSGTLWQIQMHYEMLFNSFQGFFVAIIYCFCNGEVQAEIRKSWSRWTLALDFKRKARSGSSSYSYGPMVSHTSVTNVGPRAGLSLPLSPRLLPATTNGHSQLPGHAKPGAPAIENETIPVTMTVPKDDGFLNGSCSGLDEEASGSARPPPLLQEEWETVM
Procedure: FIG. 1. […] Cells were treated with 100 nM PTH(1-34) (PTH) or 1 μM PTH-βarr. […] Data correspond to the mean±SEM from four independent experiments. (***, P<0.001 compared with the nonstimulated WT POB; †††, P<0.001; ††, P<0.01 compared with the non-stimulated β-arrestin 2−/− POBs).
The increased basal cAMP in the β-arrestin cells is likely due to the loss of β-arrestin mediated desensitization of PTH1R and/or other Gs coupled 7TMRs.
There was no significant difference in cAMP generated between WT and β-arrestin 2−/−POB at 5 min.

[2] = system: WT and β-arrestin 2−/− mice; test: Serum osteocalcin, marker of bone formation; type: in vivo; settings: 4 weeks of treatment
Procedure: FIG. 5. PTH-βarr increases serum osteocalcin and has no effect on urine Deoxypyridinoline (DPD) excretion. (a) Serum osteocalcin, a biochemical marker of bone formation was measured in WT and β-arrestin 2−/− mice after 4 weeks of treatment with vehicle, PTH (1-34) (PTH) or PTH-βarr. […] There was no increase in serum osteocalcin in the arrestin 2−/− mice treated with PTH-βarr compared to placebo. […] (b) 24 hour urine DPD, a marker of bone degradation and bone resorption, was also measured in WT and β-arrestin 2−/− mice after 4 weeks of treatment with vehicle, PTH or PTH-βarr. […] Data represent the mean±SEM of at least 7 independent mouse measurements. (***, P<0.001; *, P<0.05; compared with vehicle treated WT mice; †††, P<0.001; ††, P<0.01 compared with vehicle treated β-arrestin 2−/− mice).
To delineate the cellular mechanisms contributing to the metabolic effects of PTH(1-34) and PTH-βarr administration in WT and β-arrestin 2−/− mice, serum and urine markers of bone turnover were assessed.

[3] = system: osteocalcin, RANKL and OPG gene expression; test: Calvarial gene expression of bone regulatory proteins by quantitative RT-PCR; type: in vivo, mice
Procedure: FIG. 6 Distinct β-arrestin- and G protein-dependent Pathways Contribute to PTH Receptor-stimulated Gene Expression of Bone Regulatory Proteins. To determine the contributions of β-arrestin mediated signaling, to PTH receptor stimulated transcription of bone regulatory proteins, RNA was isolated from the calvaria of WT and β-arrestin 2−/− mice treated with vehicle, PTH(1-34) (PTH), or PTH-βarr. Gene expression was analyzed by quantitative RT-PCR. (a) Consistent with bone formation PTH and PTH-βarr increased osteocalcin expression in WT calvaria. […] (b) and (c). […] Data represent the mean±SEM from six independent experiments. (***, P<0.001; **, P<0.01; *, P<0.05; compared with vehicle treated WT mice; †††, P<0.001; †, P<0.05 compared with vehicle treated β-arrestin 2−/− mice).
To determine the contribution of β-arrestin mediated signaling to PTH1R-stimulated transcription of bone regulatory proteins, calvarial RNA was isolated from WT and β-arrestin 2−/− mice treated with PTH(1-34), PTH-βarr or vehicle. Gene expression for osteocalcin, as well as receptor activator of nuclear factor-KB ligand (RANKL) and osteoprotegrin (OPG), which activate and inhibit osteoclastic bone resorption respectively, was analyzed by quantitative RTPCR (FIG. 6 A-C).

[4] = target: T1, endogenous PTH1R; test: Gq/11 PI hydrolysis in POB cultures; type: cell-based, mice; settings: data not shown
[5] = system: WT and β-arrestin 2−/− mice; test: qCT of the midfemoral shaft (cortical bone); type: in vivo; settings: for femoral periosteal circumference / midshaft cortical thickness: WT mice; for femoral periosteal circumference / midshaft cortical thickness / cortical thickness / periosteal circumference: 8 wks; for endosteal bone surfaces: WT or β-arrestin−/− mice, data not shown; for cortical thickness / periosteal circumference: β-arrestin 2−/− mice
From the text: Finally, the effects of PTH(1-34) and PTH-βarr on cortical bone were examined by qCT of the midfemoral shaft (FIGS. 3D and E). […] However the β-arrestin 2−/− mice had greater midshaft cortical thickness than vehicle treated WT mice. […] The biased agonist, PTH-βarr had no effect on these cortical indices in WT mice.

[6] = system: PTH1 receptor; settings: cited from earlier work
[7] = system: WT and β-arrestin 2−/− mice; test: Quantitative histomorphometry of lumbar spine sections; type: in vivo; settings: for osteoblast surface vs vehicle / osteoclast surface (osteoclast recruitment) / osteoid surface vs vehicle: WT mice, 8 wks, lumbar spine sections
From the text: Dynamic histomorphometric data were consistent with the qCT of trabecular bone morphology. […] As expected there was an increase in osteoclast surface in the PTH (1-34) treated animals.

[8] = Gardella 1996, Sneddon 2004, Bisello 2002

(D-Trp12, Tyr34)-PTH(7-34) [PTH-βarr]
cAMP accumulation ([1]; WT POB): unable to stimulate cAMP; also recorded: did not increase cAMP | cAMP accumulation ([1]; β-arrestin 2−/− POB): decreases basal cAMP levels; also recorded: significantly decreased | serum osteocalcin vs vehicle ([2]; WT mice): significantly increased | serum osteocalcin vs vehicle ([2]; β-arrestin 2−/− mice): no increase; also recorded: no significant change | OPG mRNA expression vs vehicle ([3]; WT mice, calvaria): did not affect | RANKL mRNA expression vs vehicle ([3]; WT mice, calvaria): did not affect | osteocalcin mRNA expression vs vehicle ([3]; WT mice, calvaria): increases | OPG mRNA expression vs vehicle ([3]; WT mice; calvaria; Tyr34)-PTH(7-34)): significantly increases | OPG mRNA expression vs vehicle ([3]; β-arrestin 2−/− mice, calvaria): Neither PTH nor PTH-βarr treatment had a significant effect | RANKL mRNA expression vs vehicle ([3]; β-arrestin 2−/− mice, calvaria): Neither PTH nor PTH-βarr treatment had a significant effect | osteocalcin mRNA expression vs vehicle ([3]; β-arrestin 2−/− mice, calvaria): decrease | Gq/11 PI hydrolysis [4]: did not activate | femoral periosteal circumference [5]: no effect | midshaft cortical thickness [5]: no effect | endosteal bone surfaces [5]: no significant effects | cortical thickness [5]: significantly decreased | periosteal circumference [5]: significantly decreased | PTH1 receptor-Gs coupling / cAMP production [6, 8]: inverse agonist | arrestin-dependent sequestration / β-arrestin recruitment [6, 8]: promoting arrestin-dependent sequestration | β-arrestin-dependent ERK1/2 activation ([6]; in vitro, Gesty-Palmer 2006): elicit β-arrestin-dependent ERK1/2 activation | osteoblast surface vs vehicle [7]: increased | osteoclast surface (osteoclast recruitment) [7]: no effect | osteoid surface vs vehicle [7]: increased

PTH(1-34) [reference compound]
cAMP accumulation ([1]; WT POB): robust increases | cAMP accumulation ([1]; WT POB, listed as PTH): robust increase | cAMP accumulation ([1]; β-arrestin 2−/− POB): robust increases | cAMP accumulation ([1]; β-arrestin 2−/− POB, listed as PTH): robust increase | serum osteocalcin vs vehicle ([2]; WT mice): significantly increased | serum osteocalcin vs vehicle ([2]; WT mice, listed as PTH): significantly increase | serum osteocalcin vs vehicle ([2]; β-arrestin 2−/− mice): increased | OPG mRNA expression vs vehicle ([3]; WT mice, calvaria): increases | RANKL mRNA expression vs vehicle ([3]; WT mice, calvaria): increases | osteocalcin mRNA expression vs vehicle ([3]; WT mice, calvaria): increases | osteocalcin mRNA expression vs vehicle ([3]; WT mice, calvaria, listed as PTH): increased | OPG mRNA expression vs vehicle ([3]; β-arrestin 2−/− mice, calvaria): Neither PTH nor PTH-βarr treatment had a significant effect | RANKL mRNA expression vs vehicle ([3]; β-arrestin 2−/− mice, calvaria): Neither PTH nor PTH-βarr treatment had a significant effect | osteocalcin mRNA expression vs vehicle ([3]; β-arrestin 2−/− mice, calvaria, listed as PTH): significant increase; also recorded: significantly increased | Gq/11 PI hydrolysis [4]: did not activate | femoral periosteal circumference [5]: increased | midshaft cortical thickness [5]: increased | endosteal bone surfaces [5]: no significant effects | cortical thickness [5]: no significant effect | periosteal circumference [5]: no significant effect | osteoblast surface vs vehicle [7]: increased | osteoclast surface (osteoclast recruitment) [7]: increase | osteoid surface vs vehicle [7]: increased | osteoclast formation ([7]; in the absence of β-arrestin 2): accelerates

Reference: patent publication US20110178015A1, “METHODS OF TREATMENT USING BIASED LIGANDS FOR RECEPTORS SUCH AS THE PTH RECEPTOR” (priority 2007, published 2011)
